Results published in ChEMBL document CHEMBL2440076, “New triarylpyrazoles as broad-spectrum anticancer agents: design, synthesis, and biological evaluation” (Eur J Med Chem, 2013).

Legend:
Type in all cases: functional
MDA-MB-435 [1] = assay: Growth inhibition of human MDA-MB-435 cells assessed as cell growth at 5X10'-5 M after 48 hrs by sulforhodamine B assay; conditions: MDA-MB-435, 48 h, read-out: Activity
RXF 393 [2] = assay: Growth inhibition of human RXF393 cells assessed as cell growth at 5X10'-9 M after 48 hrs by sulforhodamine B assay; conditions: RXF 393, 48 h, read-out: Activity
T47D = assay: Growth inhibition of human T47D cells assessed as cell growth at 5X10'-9 M after 48 hrs by sulforhodamine B assay; conditions: read-out: Activity
CAKI-1 = assay: Growth inhibition of human CAKI-1 cells assessed as cell growth at 5X10'-9 M after 48 hrs by sulforhodamine B assay; conditions: CAKI-1, 48 h, read-out: Activity
SNB-75 = assay: Growth inhibition of human SNB75 cells assessed as cell growth at 5X10'-6 M after 48 hrs by sulforhodamine B assay; conditions: SNB-75, 48 h, read-out: Activity
DU-145 = assay: Growth inhibition of human DU145 cells assessed as cell growth at 3X10'-8 M after 48 hrs by sulforhodamine B assay; conditions: DU-145, 48 h, read-out: Activity
MCF7 [3] = assay: Growth inhibition of human MCF7 cells assessed as cell growth at 3X10'-9 M after 48 hrs by sulforhodamine B assay; conditions: MCF7, 48 h, read-out: Activity
MDA-MB-435 [4] = assay: Growth inhibition of human MDA-MB-435 cells assessed as cell growth at 3X10'-7 M after 48 hrs by sulforhodamine B assay; conditions: MDA-MB-435, 48 h, read-out: Activity
SF-295 [5] = assay: Growth inhibition of human SF295 cells assessed as cell growth at 3X10'-9 M after 48 hrs by sulforhodamine B assay; conditions: SF-295, 48 h, read-out: Activity
SW-620 [6] = assay: Growth inhibition of human SW620 cells assessed as cell growth at 3X10'-8 M after 48 hrs by sulforhodamine B assay; conditions: SW-620, 48 h, read-out: Activity
SW-620 [7] = assay: Growth inhibition of human SW620 cells assessed as cell growth at 3X10'-9 M after 48 hrs by sulforhodamine B assay; conditions: SW-620, 48 h, read-out: Activity
MDA-MB-231 [8] = assay: Growth inhibition of human MDA-MB-231 cells assessed as cell growth at 3X10'-9 M after 48 hrs by sulforhodamine B assay; conditions: MDA-MB-231, 48 h, read-out: Activity
HOP-62 = assay: Growth inhibition of human HOP62 cells assessed as cell growth at 3X10'-9 M after 48 hrs by sulforhodamine B assay; conditions: HOP-62, 48 h, read-out: Activity
RXF 393 [9] = assay: Growth inhibition of human RXF393 cells assessed as cell growth at 3X10'-9 M after 48 hrs by sulforhodamine B assay; conditions: RXF 393, 48 h, read-out: Activity
SK-MEL-2 [10] = assay: Growth inhibition of human SK-MEL-2 cells assessed as cell growth at 3X10'-9 M after 48 hrs by sulforhodamine B assay; conditions: SK-MEL-2, 48 h, read-out: Activity
[11] = Growth inhibition of human NCI-ADR-RES cells assessed as cell growth at 3X10'-7 M after 48 hrs by sulforhodamine B assay; conditions: read-out: Activity
U-251 = assay: Growth inhibition of human U251 cells assessed as cell growth at 3X10'-5 M after 48 hrs by sulforhodamine B assay; conditions: U-251, 48 h, read-out: Activity
SK-MEL-2 [12] = assay: Growth inhibition of human SK-MEL-2 cells assessed as cell growth at 3X10'-8 M after 48 hrs by sulforhodamine B assay; conditions: SK-MEL-2, 48 h, read-out: Activity
OVCAR-8 = assay: Growth inhibition of human OVCAR8 cells assessed as cell growth at 3X10'-8 M after 48 hrs by sulforhodamine B assay; conditions: OVCAR-8, 48 h, read-out: Activity
786-0 = assay: Growth inhibition of human 786-0 cells assessed as cell growth at 3X10'-5 M after 48 hrs by sulforhodamine B assay; conditions: 786-0, 48 h, read-out: Activity
UACC-257 = assay: Growth inhibition of human UACC257 cells assessed as cell growth at 3X10'-5 M after 48 hrs by sulforhodamine B assay; conditions: UACC-257, 48 h, read-out: Activity
ACHN = assay: Growth inhibition of human ACHN cells assessed as cell growth at 3X10'-7 M after 48 hrs by sulforhodamine B assay; conditions: read-out: Activity
SN12C = assay: Growth inhibition of human SN12C cells assessed as cell growth at 3X10'-8 M after 48 hrs by sulforhodamine B assay; conditions: read-out: Activity
SF-539 [13] = assay: Growth inhibition of human SF539 cells assessed as cell growth at 3X10'-7 M after 48 hrs by sulforhodamine B assay; conditions: SF-539, 48 h, read-out: Activity
RPMI-8226 = assay: Growth inhibition of human RPMI8226 cells assessed as cell growth at 3X10'-9 M after 48 hrs by sulforhodamine B assay; conditions: RPMI-8226, 48 h, read-out: Activity
MCF7 [14] = assay: Growth inhibition of human MCF7 cells assessed as cell growth at 3X10'-7 M after 48 hrs by sulforhodamine B assay; conditions: MCF7, 48 h, read-out: Activity
CCRF-CEM = assay: Growth inhibition of human CCRF-CEM cells assessed as cell growth at 3X10'-9 M after 48 hrs by sulforhodamine B assay; conditions: read-out: Activity
HL-60(TB) = assay: Growth inhibition of human HL-60(TB) cells assessed as cell growth at 3X10'-8 M after 48 hrs by sulforhodamine B assay; conditions: HL-60, 48 h, read-out: Activity
SF-539 [15] = assay: Growth inhibition of human SF539 cells assessed as cell growth at 3X10'-8 M after 48 hrs by sulforhodamine B assay; conditions: SF-539, 48 h, read-out: Activity
BT-549 = assay: Growth inhibition of human BT549 cells assessed as cell growth at 3X10'-7 M after 48 hrs by sulforhodamine B assay; conditions: BT-549, 48 h, read-out: Activity
NCI-H460 = assay: Growth inhibition of human NCI-H460 cells assessed as cell growth at 3X10'-9 M after 48 hrs by sulforhodamine B assay; conditions: NCI-H460, 48 h, read-out: Activity
SF-295 [16] = assay: Growth inhibition of human SF295 cells assessed as cell growth at 3X10'-7 M after 48 hrs by sulforhodamine B assay; conditions: SF-295, 48 h, read-out: Activity
SF-295 [17] = assay: Growth inhibition of human SF295 cells assessed as cell growth at 3X10'-5 M after 48 hrs by sulforhodamine B assay; conditions: SF-295, 48 h, read-out: Activity
PC-3 = assay: Growth inhibition of human PC3 cells assessed as cell growth at 3X10'-9 M after 48 hrs by sulforhodamine B assay; conditions: PC-3, 48 h, read-out: Activity
SK-MEL-2 [18] = assay: Growth inhibition of human SK-MEL-2 cells assessed as cell growth at 3X10'-6 M after 48 hrs by sulforhodamine B assay; conditions: SK-MEL-2, 48 h, read-out: Activity
SNB-19 = assay: Growth inhibition of human SNB19 cells assessed as cell growth at 3X10'-9 M after 48 hrs by sulforhodamine B assay; conditions: SNB-19, 48 h, read-out: Activity
MDA-MB-231 [19] = assay: Growth inhibition of human MDA-MB-231 cells assessed as cell growth at 3X10'-6 M after 48 hrs by sulforhodamine B assay; conditions: MDA-MB-231, 48 h, read-out: Activity

Structure (SMILES): COc1cc(-c2nn(-c3cccc(NC(=O)Nc4cc(C(F)(F)F)cc(C(F)(F)F)c4)c3)cc2-c2ccncc2)ccc1Cl
- growth at 50 µM (MDA-MB-435 [1]): -64%
- growth at 0.005 µM (RXF 393 [2]): 98%
- growth at 0.005 µM (T47D): 101%
- growth at 0.005 µM (CAKI-1): 95%
- growth at 5 µM (SNB-75): -50%

Structure (SMILES): COc1cc(-c2nn(-c3cccc(NC(=O)Nc4ccc(Cl)c(Cl)c4)c3)cc2-c2ccncc2)ccc1Cl
- growth at 50 µM (MDA-MB-435 [1]): -31%
- growth at 0.005 µM (RXF 393 [2]): 97%
- growth at 0.005 µM (T47D): 97%
- growth at 0.005 µM (CAKI-1): 97%

Structure (SMILES): COc1cc(-c2nn(-c3cccc(NC(=O)c4cccc(C(F)(F)F)c4)c3)cc2-c2ccncc2)ccc1Cl
- growth at 50 µM (MDA-MB-435 [1]): -37%
- growth at 0.005 µM (RXF 393 [2]): 99%
- growth at 0.005 µM (T47D): 92%
- growth at 0.005 µM (CAKI-1): 94%
- growth at 5 µM (SNB-75): -2%

Structure (SMILES): O=C(Nc1cccc(-n2cc(-c3ccncc3)c(-c3ccc(Cl)c(O)c3)n2)c1)Nc1ccc(Cl)c(C(F)(F)F)c1
- growth at 0.03 µM (DU-145): 105%
- growth at 0.003 µM (MCF7 [3]): 93%
- growth at 0.3 µM (MDA-MB-435 [4]): 86%
- growth at 0.003 µM (SF-295 [5]): 92%
- growth at 0.03 µM (SW-620 [6]): 101%
- growth at 0.003 µM (SW-620 [7]): 100%
- growth at 0.003 µM (MDA-MB-231 [8]): 92%
- growth at 0.003 µM (HOP-62): 97%
- growth at 0.003 µM (RXF 393 [9]): 101%
- growth at 0.003 µM (SK-MEL-2 [10]): 113%
- growth at 0.3 µM [11]: 90%
- growth at 30 µM (U-251): -80%
- growth at 0.03 µM (SK-MEL-2 [12]): 113%
- growth at 0.03 µM (OVCAR-8): 95%
- growth at 30 µM (786-0): 1%
- growth at 30 µM (UACC-257): -90%
- growth at 0.3 µM (ACHN): 84%
- growth at 0.03 µM (SN12C): 94%
- growth at 0.3 µM (SF-539 [13]): 89%
- growth at 0.003 µM (RPMI-8226): 96%
- growth at 0.3 µM (MCF7 [14]): 71%
- growth at 0.003 µM (CCRF-CEM): 98%
- growth at 0.03 µM (HL-60(TB)): 116%
- growth at 0.03 µM (SF-539 [15]): 94%
- growth at 0.3 µM (BT-549): 104%
- growth at 0.003 µM (NCI-H460): 103%
- growth at 0.3 µM (SF-295 [16]): 90%
- growth at 30 µM (SF-295 [17]): -41%
- growth at 0.003 µM (PC-3): 93%
- growth at 3 µM (SK-MEL-2 [18]): -41%
- growth at 0.003 µM (SNB-19): 96%
- growth at 3 µM (MDA-MB-231 [19]): -38%

Structure (SMILES): O=C(Nc1cccc(-n2cc(-c3ccncc3)c(-c3ccc(Cl)c(O)c3)n2)c1)c1ccc(N2CCOCC2)c(C(F)(F)F)c1
- growth at 50 µM (MDA-MB-435 [1]): 1%
- growth at 0.005 µM (RXF 393 [2]): 105%
- growth at 0.005 µM (T47D): 97%
- growth at 0.005 µM (CAKI-1): 93%
- growth at 5 µM (SNB-75): 20%
